In article PMC5215309 (European Journal of Nuclear Medicine and Molecular Imaging, 2016):

Molecular target: T1, PDE10A (Macaca fascicularis, UniProt A0A2K5WSP5)
T1 construct: native enzyme in living brain (in vivo PET; striatum, globus pallidus, substantia nigra)
T1 sequence (A0A2K5WSP5 1-791): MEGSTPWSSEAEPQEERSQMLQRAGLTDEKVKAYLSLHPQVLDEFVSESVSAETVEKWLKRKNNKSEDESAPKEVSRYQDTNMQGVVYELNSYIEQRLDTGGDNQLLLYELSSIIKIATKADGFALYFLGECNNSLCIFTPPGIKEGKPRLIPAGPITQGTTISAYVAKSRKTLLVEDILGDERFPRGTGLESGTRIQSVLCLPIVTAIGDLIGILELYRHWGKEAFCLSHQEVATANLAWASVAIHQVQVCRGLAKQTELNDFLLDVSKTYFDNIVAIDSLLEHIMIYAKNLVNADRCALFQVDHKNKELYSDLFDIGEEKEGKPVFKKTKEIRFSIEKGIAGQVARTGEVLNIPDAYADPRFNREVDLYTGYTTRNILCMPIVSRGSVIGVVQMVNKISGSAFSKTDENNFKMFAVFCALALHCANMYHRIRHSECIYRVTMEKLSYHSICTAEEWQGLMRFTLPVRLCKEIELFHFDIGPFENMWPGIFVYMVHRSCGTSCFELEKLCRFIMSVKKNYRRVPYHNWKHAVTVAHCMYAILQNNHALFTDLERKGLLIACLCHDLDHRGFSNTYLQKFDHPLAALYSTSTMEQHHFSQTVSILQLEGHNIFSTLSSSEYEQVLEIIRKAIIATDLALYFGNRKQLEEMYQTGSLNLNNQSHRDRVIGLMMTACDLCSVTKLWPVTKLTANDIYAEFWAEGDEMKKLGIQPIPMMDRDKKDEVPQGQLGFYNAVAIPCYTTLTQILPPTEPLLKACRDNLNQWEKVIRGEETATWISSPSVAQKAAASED
Assay: in vivo PET competition with […]Lu AE92686, Lassen plot
Details: two monkeys; i.v. pretreatment, mean plasma concentrations 685 and 749 ng/mL

Q: With `Cn1cc(-c2ccncc2)c(-c2ccc(OCc3ccc4ccccc4n3)cc2)n1` [MP-10] as the compound, how does the “% PDE10A occupancy at […]” value read?
A: The value was 93 and 95.
